Data published in paper PMC9367601 (Cancers, 2022).

Target: T1, Epidermal Growth Factor Receptor (EGFR), extracellular domain (EGFR-ECD) (Homo sapiens, UniProt P00533)
T1 construct: full-length EGFR in DiscoverX PathHunter enzyme-complementation cells, EGF-stimulated
Assay: cell-based
Set-up: DiscoverX PathHunter EGFR dimerization/activation assay, chemiluminescence
Procedure: The inhibition of the EGFR dimerization assay was conducted using the PathHunter kit following the producer instructions and with cetuximab as a positive control. For IC50 determination, the selected compounds were tested at different concentration (range 0.1–100 µM) and the IC50 values were calculated by the four parameters logistic (4-PL) model. Evaluation was based on means from at least four independent experiments. The discovery of orally available small molecules able to impair the EGFR activation targeting the extracellular domain could be of great interest for cancer treatment. To pursue this goal, a suitable high/medium throughput screening method is required. In this respect, a commercially available kit (PathHunter® from DiscoverX©; San Francisco, CA, USA) for the screening of compounds able to prevent EGFR activation (either dimerization or autophosphorylation) has been developed in recent years. This assay measures the chemiluminescent signal produced as a consequence of ligand-induced dimerization/activation of EGFR [16]. Our interest in kinase inhibitors and the readily availability of such kit prompted us to start a campaign for the discovery of small molecules targeting the extracellular domain of EGFR.

T1 sequence (P00533 25-1210): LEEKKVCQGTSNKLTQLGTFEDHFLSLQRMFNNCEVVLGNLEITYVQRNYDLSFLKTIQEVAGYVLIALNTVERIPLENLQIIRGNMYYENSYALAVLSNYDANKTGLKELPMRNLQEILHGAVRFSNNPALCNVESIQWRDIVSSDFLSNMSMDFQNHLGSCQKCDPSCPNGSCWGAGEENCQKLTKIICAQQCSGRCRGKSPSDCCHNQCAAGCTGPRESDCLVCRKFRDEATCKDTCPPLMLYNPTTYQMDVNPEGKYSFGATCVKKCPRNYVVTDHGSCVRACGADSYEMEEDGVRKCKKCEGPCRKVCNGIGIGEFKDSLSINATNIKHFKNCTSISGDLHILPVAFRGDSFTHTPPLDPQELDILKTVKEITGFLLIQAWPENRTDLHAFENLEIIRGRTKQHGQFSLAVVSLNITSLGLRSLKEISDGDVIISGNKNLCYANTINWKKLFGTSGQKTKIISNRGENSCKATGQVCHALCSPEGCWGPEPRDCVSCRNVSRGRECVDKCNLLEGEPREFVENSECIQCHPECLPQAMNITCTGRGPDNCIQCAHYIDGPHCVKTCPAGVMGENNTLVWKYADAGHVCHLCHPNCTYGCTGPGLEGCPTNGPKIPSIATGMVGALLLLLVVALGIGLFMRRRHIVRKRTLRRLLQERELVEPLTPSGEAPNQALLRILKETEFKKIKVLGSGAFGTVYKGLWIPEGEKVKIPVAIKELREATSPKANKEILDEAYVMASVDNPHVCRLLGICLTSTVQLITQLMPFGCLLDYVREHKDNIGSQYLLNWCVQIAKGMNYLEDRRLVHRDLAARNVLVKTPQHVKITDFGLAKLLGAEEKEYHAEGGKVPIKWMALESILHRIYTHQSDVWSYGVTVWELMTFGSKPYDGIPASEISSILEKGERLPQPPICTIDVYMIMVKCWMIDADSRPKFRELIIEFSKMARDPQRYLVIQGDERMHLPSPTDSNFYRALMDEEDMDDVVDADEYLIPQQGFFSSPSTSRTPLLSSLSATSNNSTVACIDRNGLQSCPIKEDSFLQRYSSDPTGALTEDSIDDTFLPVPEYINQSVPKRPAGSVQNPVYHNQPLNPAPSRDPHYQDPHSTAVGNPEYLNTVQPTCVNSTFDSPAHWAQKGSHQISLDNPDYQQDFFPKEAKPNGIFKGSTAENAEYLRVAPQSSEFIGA

Row | Compound | inhibition at 10 µM | inhibition at 50 µM | % inhibition @ 10 uM (inhibitor, % inhibition @ 10 uM, 10 µM) | % inhibition @ 50 uM (inhibitor, % inhibition @ 50 uM, 50 µM)
1 | Nc1cccc(-c2cc(-c3ccccc3)ncn2)c1 [DSF022] | 0% | 4 ± 4% | – | –
2 | COc1ccc(OC)c(NS(=O)(=O)c2ccc(Cl)cc2[N+](=O)[O-])c1 [DSF088] | 0% | 22 ± 3% | – | –
3 | O=C(O)c1ccc(-c2cc(-c3cccc(C(F)(F)F)c3)ncn2)cc1 [DSF025] | 6 ± 5% | 34 ± 1% | – | –
4 | CCOC(=O)c1cc2cnc(O)nc2oc1=O [DSF040] | 0% | 0% | – | –
5 | Cc1nc(Cl)cc(Nc2ncc(C(=O)O)s2)n1 [DSF060] | 0% | 0% | – | –
6 | O=[N+]([O-])c1cc(Cl)ccc1S(=O)(=O)Nc1cccc(Cl)c1 [DSF086] | 0% | 19 ± 4% | – | –
7 | CN(C)c1ccc(/C=C2/N=C(c3ccccc3)OC2=O)cc1 [DSF073] | 23 ± 1% | 36 ± 3% | – | –
8 | Cc1ccc([N+](=O)[O-])cc1Nc1nccc(-c2cccnc2)n1 [DSF059] | 0% | 0% | – | –
9 | COc1ccc2c(C)c(CC(=O)Nc3ccc(C(=O)O)cc3)c(=O)oc2c1 [DSF043] | 0% | 0% | – | –
10 | CC(=O)Nc1ccc(/C=C2/N=C(c3cccnc3Cl)OC2=O)cc1 [DSF078] | 7 ± 1% | 37 ± 4% | – | –
11 | COc1cc(/C=C2/N=C(c3ccccc3)OC2=O)ccc1OC(C)=O [DSF072] | 16 ± 4% | 39 ± 2% | – | –
12 | c1ccc(-c2cccc(-c3cc(-c4ccccc4)ncn3)c2)cc1 [DSF027] | 0% | 0% | – | –
13 | O=C(Nc1ccc(Nc2cc(-c3ccccc3)ncn2)cc1)Nc1ccc(C(=O)O)cc1 [DSF057] | 17 ± 2% | 44 ± 5% | – | –
14 | O=c1oc2nc(Nc3cccc(-c4ccccc4)c3)nc(O)c2cc1-c1cccc(Br)c1 [DSF041] | 0% | 0% | – | –
15 | Cc1cccc(C)c1NS(=O)(=O)c1ccc(CC(=O)O)cc1 [DSF082] | – | – | 16 ± 1% | 19 ± 5%
16 | O=C1OC(c2ccccc2)=N/C1=C/c1ccc[nH]1 [DSF075] | 18 ± 5% | 34 ± 4% | – | –
17 | N#CCc1c2ccccc2c(CC#N)c2ccccc12 [DSF004] | 0% | 1 ± 1% | – | –
18 | Cc1c(CC(=O)Nc2ccc(C(N)=O)cc2)c(=O)oc2c(C)c3oc4c(c3cc12)CCCC4 [DSF053] | 39 ± 5% | 43 ± 1% | – | –
19 | COc1ccc2c(C)c(CC(=O)Nc3cccc(C(=O)O)c3)c(=O)oc2c1C [DSF047] | 0% | 0% | – | –
20 | O=C(NCc1ccccc1)c1ccc(-c2ccc(-c3ccccc3)cc2O)cc1 [DSF030] | 0% | 0% | – | –
21 | CCc1cnc(Oc2cccc(NC(=O)NC(=O)c3ccccc3[N+](=O)[O-])c2)nc1 [DSF066] | 0% | 0% | – | –
22 | O=C(NC(=O)c1ccccc1)Nc1cccc(Oc2ncc(Cl)cn2)c1 [DSF061] | 20 ± 4% | 1 ± 1% | – | –
23 | COCCOc1ccc2c(C)c(CC(=O)Nc3ccc(C(=O)O)cc3)c(=O)oc2c1 [DSF046] | 0% | 0% | – | –
24 | Cc1c(CC(=O)Nc2cccc(O)c2)c(=O)oc2c(C)c3oc4c(c3cc12)CCCC4 [DSF050] | 24 ± 4% | 32 ± 2% | – | –
25 | CN1CCN(c2ncnc3oc(=O)c(-c4c(Cl)cccc4Cl)cc23)CC1 [DSF039] | 0% | 10 ± 2% | – | –
26 | c1ccc2c(CN3CCOCC3)c3ccccc3c(CN3CCOCC3)c2c1 [DSF006] | 19 ± 1% | 27 ± 4% | – | –
27 | CC(=O)Nc1ccc(O)c2c1C(=O)c1ccccc1C2=O [DSF008] | 0% | 14 ± 2% | – | –
28 | CC(NC(=O)C(NC(=O)OCc1ccccc1)C(C)C)C(=O)OCCCCCNc1ccc(NCCCCCOC(=O)C(C)NC(=O)C(NC(=O)OCc2ccccc2)C(C)C)c2c1C(=O)c1ccccc1C2=O (centres unmarked) [DSF012] | 0% | 20 ± 5% | – | –
